Source: the supplement of paper PMC10307832

Key:
Test in all cases: relative viability (nuclei count vs DMSO), 5 days (fraction); higher = more cells survive
AZD6482 + AZD7762 = compound: Cc1cc([C@@H](C)Nc2ccccc2C(=O)O)c2nc(N3CCOCC3)cc(=O)n2c1 [AZD6482] + NC(=O)Nc1cc(-c2cccc(F)c2)sc1C(=O)N[C@H]1CCCNC1 [AZD7762] (partner 0.2 µM)
Procedure, shortened: (§1)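 Lung cancer cell lines in 1536-well plates got either a single drug or a fixed anchor-drug dose together with five library-drug doses (not always all listed) in √10 steps, by pin tool, on the day after seeding. Nuclei were counted after 5 days, and relative viability is the treated-to-vehicle ratio of nuclei counts. Values are medians of duplicate plates.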

[1] = compound: COc1cc2nc(N3CCCN(C)CC3)nc(NC3CCN(Cc4ccccc4)CC3)c2cc1OC + CC(C)C[C@H](NC(=O)[C@H](Cc1ccccc1)NC(=O)c1cnccn1)B(O)O [Bortezomib] (partner 0.002 µM)
Procedure, shortened: as §1

[2] = compound: COc1cc2nc(N3CCCN(C)CC3)nc(NC3CCN(Cc4ccccc4)CC3)c2cc1OC + O=C(CCCCCCC(=O)Nc1ccccc1)NO [Vorinostat] (partner 1 µM)
Procedure, shortened: as §1

AZD6482 + Phenformin = compound: Cc1cc([C@@H](C)Nc2ccccc2C(=O)O)c2nc(N3CCOCC3)cc(=O)n2c1 [AZD6482] + N=C(N)NC(=N)NCCc1ccccc1 [Phenformin] (partner 250 µM)
Procedure, shortened: as §1

Cell Line	relative viability (AZD6482 + AZD7762; first compound 0.08 µM)	relative viability (AZD6482 + AZD7762; first compound 0.253 µM)	relative viability (AZD6482 + AZD7762; first compound 0.8 µM)	relative viability (AZD6482 + AZD7762; first compound 2.53 µM)	relative viability (AZD6482 + AZD7762; first compound 8 µM)	relative viability ([1]; first compound 0.2 µM)	relative viability ([1]; first compound 0.6325 µM)	relative viability ([1]; first compound 2 µM)	relative viability ([1]; first compound 6.325 µM)	relative viability ([2]; first compound 0.2 µM)	relative viability ([2]; first compound 0.6325 µM)	relative viability ([2]; first compound 2 µM)	relative viability ([2]; first compound 6.325 µM)	relative viability (AZD6482 + Phenformin; first compound 0.08 µM)	relative viability (AZD6482 + Phenformin; first compound 0.253 µM)	relative viability (AZD6482 + Phenformin; first compound 0.8 µM)	relative viability (AZD6482 + Phenformin; first compound 8 µM)	relative viability (AZD6482 + Phenformin; first compound 2.53 µM)
NCI-H2087	1.35	1.35	1.46	0.887	1.09	0.868	0.795	0.884	0.675	0.806	0.618	0.521	0.611	0.44	0.442	0.474	0.385	–
NCI-H1437	1.16	1.07	1.16	1.03	0.836	0.614	0.683	0.65	0.459	0.871	0.778	0.982	0.734	0.268	0.287	0.262	0.261	0.223
ABC-1	0.825	0.892	0.695	0.772	0.638	0.26	0.339	0.264	0.328	0.959	1.23	1.13	0.917	0.212	0.237	0.283	0.205	0.229
NCI-H838	0.936	0.902	0.934	0.78	0.759	0.858	1.02	0.73	0.721	0.772	0.695	0.938	0.626	0.459	0.519	0.497	0.397	0.263
A-427	0.645	0.804	0.684	0.451	0.627	0.962	0.869	1.09	0.957	0.865	0.827	0.882	0.851	0.345	0.232	0.319	0.225	–
LCLC-97TM1	0.344	0.157	0.442	–	0.299	0.439	0.939	0.697	0.517	0.801	0.649	1	0.69	0.443	0.44	0.39	0.308	0.363
LCLC-103H	0.626	0.721	0.619	0.579	0.562	1.18	1.09	1.31	1.01	0.776	0.754	0.844	0.656	0.255	0.274	0.342	0.215	0.251
PC-3 [JPC-3]	0.872	0.715	0.741	0.367	0.413	0.793	0.787	0.962	0.675	0.625	0.926	0.781	0.707	0.418	0.492	0.508	0.391	0.406
BEN	0.664	0.68	0.779	0.457	0.646	0.781	0.952	1.09	0.883	0.608	0.54	0.636	0.552	0.349	0.281	0.24	0.182	0.277
NCI-H1666	0.79	0.776	0.958	0.835	0.767	0.832	0.781	0.701	0.468	1.08	0.943	0.958	1.06	0.532	0.548	0.582	0.577	0.525
LC-2-ad	0.842	0.774	0.821	0.662	0.593	1.03	1.01	1.16	1.04	0.679	0.716	0.763	0.693	0.615	0.497	0.6	0.471	0.442
ChaGo-K-1	0.897	0.775	0.946	0.823	0.915	0.995	1.13	1.16	0.838	0.784	0.749	0.779	0.717	0.54	0.397	0.446	0.416	0.48
NCI-H1975	0.621	0.631	0.676	0.477	0.363	0.371	0.376	0.346	0.413	0.397	0.677	0.797	0.654	0.373	0.383	0.401	0.232	0.283
NCI-H1993	0.454	0.734	0.717	0.427	0.55	1.02	1.37	1.23	1.05	0.778	0.798	0.855	0.661	0.49	0.488	0.471	0.449	0.524
RERF-LC-KJ	0.867	0.893	–	0.812	0.838	1.12	1.08	1.14	1.02	0.61	0.704	0.703	0.589	0.424	0.401	0.368	0.292	0.394
NCI-H23	0.317	0.223	0.236	0.201	0.219	1	0.943	1.2	0.918	0.571	0.597	0.576	0.471	0.789	0.785	0.84	0.658	0.628
HCC-366	0.23	0.243	0.253	0.179	0.25	1.02	1	1.03	0.927	0.332	0.33	0.254	0.284	0.663	0.609	0.636	0.45	0.477
EMC-BAC-2	1.03	0.958	1.02	0.818	0.679	1.09	1.12	1.11	1.09	0.431	0.427	0.448	0.508	0.489	0.445	0.493	0.44	0.352
